{
  "source": "patent US11058660B2",
  "about": "“External wound-healing agent, and external wound-healing material” (Mitsui Chemicals, Inc., priority 2014, dated 2021)",
  "key": {"[1]": {"test_system": "burn injury site on the back of a rat", "test": "Rat burn injury healing test with nonwoven fabrics", "format": "in vivo", "conditions": "nonwoven fabric test", "procedure": "In this animal testing, the nonwoven fabric A or the nonwoven fabric B was applied to a burn injury site on the back of a rat, and the healing effects by the application of the nonwoven fabric A and B were evaluated. The details of the experiment will be described below.\nThe back of a rat was depilated. In the depilated portion, hot water at 80° C. was brought into contact for 5 seconds to form two burn injury sites. To the burn injury sites, the nonwoven fabric A (about 2 cm×2 cm) and the nonwoven fabric B (about 2 cm×2 cm) were applied, and occlusive patching was performed using non-permeable surgical tape (Blenderm, 3M) and adhesive flexible bandage (Silkytex 3, ALCARE Co., Ltd). On days 3, 6, and 9 after the application of the nonwoven fabrics A and B, the nonwoven fabrics were removed, and the healing effect was evaluated. […]\nTwo burn injury sites were each formed on 15 rats, and then the nonwoven fabric A and the nonwoven fabric B were applied to each two burn injury sites. […] On day 3, the nonwoven fabrics A and B on the rats of test group A were removed, and the skin conditions were assessed. On day 6, the nonwoven fabrics A and B on the rats of test group B were removed, and the skin conditions were assessed, and on day 9, the nonwoven fabrics A and B on the rats of test group C were removed, and the skin conditions were assessed. […]"}, "[2]": {"test_system": "burn injury sites on the backs of rats", "test": "Rat burn injury healing test with films", "format": "in vivo", "conditions": "film test", "procedure": "The skin conditions of the rats were evaluated according to the following scores (visual inspection).\n0: asymptomatic, 1: slight, 2: mild, 3: moderate, 4: crusting, 5: necrosed\nThe test results were expressed as average values±standard errors and analyzed using EXSUS (Version 8.0, CAC EXICARE Corporation) and SAS (Version 9.3, SAS Institute Japan Ltd). For the scores of the skin conditions, the Wilcoxon test was conducted at a 2-sided significance level of 5%.\nIn this animal testing, the films 1 to 3 were applied to burn injury sites on the backs of rats, and the healing effects by the application of the films 1 to 3 were evaluated. For comparison, a burn injury site was left untreated, and the development of the untreated site was observed. The details of the experiment will be described below.\nThe back of a rat was depilated. In the depilated portion, hot water at 80° C. was brought into contact for 5 seconds to form two burn injury sites. […] On days 3, 6, and 9 after the application of the films 1 and 2, the films were removed, and the healing effect was evaluated.\nFurthermore, two burn injury sites were formed on the back of another rat in the same manner as described above. […] On days 3, 6, and 9 after the application of the film 3, the film was removed, and the healing effect was evaluated. […]"}},
  "data": [
    {"smiles": "CCCCCCCCCCCCCCCCCC(=O)OCC(O)CO", "note": "(centres unmarked) [glycerol alkyl ester, glycerol stearate]", "values": [
      {"measurement": "healing effect on skin having a burn injury (conclusion)", "setting": "[1]", "result": "has an external wound-healing effect"},
      {"measurement": "healing effect on skin having a burn injury (conclusion)", "setting": "[2]", "result": "has an external wound-healing effect"}
    ]}
  ]
}
